Experimental data from patent US9260435B2, “Substituted imidazopyrazines as Akt kinase inhibitors” (Bayer Intellectual Property GmbH, priority 2012, dated 2016).

Experiments:
[1] = biological target: His-tagged human recombinant kinase full-length Akt2 (Homo sapiens (Human), UniProt P31751); experiment: Akt2 kinase assay (TR-FRET); format: biochemical; settings: 10 μM ATP, read-out: Akt2, median IC50
From the text: Biological Assay 2.0: Akt2 Kinase Assay
Akt2 inhibitory activity of compounds of the present invention was quantified employing the Akt2 TR-FRET assay as described in the following paragraphs.
His-tagged human recombinant kinase full-length Akt2 expressed in insect cells and activated by PDK1 was purchased from Invitrogen (part number PV 3975). As substrate for the kinase reaction the biotinylated peptide biotin-Ahx-KKLNRTLSFAEPG (C-terminus in amide form) was used which can be purchased e.g. from the company Biosynthan GmbH (Berlin-Buch, Germany).
For the assay 50 nl of a 100 fold concentrated solution of the test compound in DMSO was pipetted into a black low volume 384 well microtiter plate (Greiner Bio-One, Frickenhausen, Germany), 2 μl of a solution of Akt2 in assay buffer [50 mM TRIS/HCl pH 7.5, 5 mM MgCl2, 1 mM dithiothreitol, 0.02% (v/v) Triton X-100 (Sigma)] were added and the mixture was incubated for 15 min at 22° C. to allow prebinding of the test compounds to the enzyme before the start of the kinase reaction. Then the kinase reaction was started by the addition of 3 μl of a solution of adenosine-tri-phosphate (ATP, 16.7 μM=>final conc. in the 5 μl assay volume is 10 μM) and substrate (1.67 μM=>final conc. in the 5 μl assay volume is 1 μM) in assay buffer and the resulting mixture was incubated for a reaction time of 60 min at 22° C. The concentration of Akt2 in the assay was adjusted depending of the activity of the enzyme lot and was chosen appropriate to have the assay in the linear range, typical enzyme concentrations were in the range of about 0.2 ng/μl (final conc. in the 5 μl assay volume).
The reaction was stopped by the addition of 5 μl of a solution of HTRF detection reagents (200 nM streptavidine-XL665 [Cisbio] and 1.5 nM anti-phosho-Serine antibody [Millipore, cat. #35-001] and 0.75 nM LANCE Eu-W 1024 labeled anti-mouse IgG antibody [Perkin Elmer]) in an aqueous EDTA-solution (100 mM EDTA, 0.1% (w/v) bovine serum albumin in 50 mM HEPES/NaOH pH 7.5).
The resulting mixture was incubated 1 h at 22° C. to allow the binding of the biotinylated phosphorylated peptide to the streptavidine-XL665 and the antibodies. Subsequently the amount of phosphorylated substrate was evaluated by measurement of the resonance energy transfer from the anti-mouse-IgG-Eu-Chelate to the streptavidine-XL665. Therefore, the fluorescence emissions at 620 nm and 665 nm after excitation at 350 nm was measured in a TR-FRET reader, e.g. a Rubystar (BMG Labtechnologies, Offenburg, Germany) or a Viewlux (Perkin-Elmer). The ratio of the emissions at 665 nm and at […] was taken as the measure for the amount of phosphorylated substrate. The data were normalised (enzyme reaction without inhibitor=0% inhibition, all other assay components but no enzyme=100% inhibition).

p-4E-BP1 at T70 = experiment: Cellular p-4E-BP1-T70 assay in KPL-4 cells; format: cell-based; settings: Homo sapiens, KPL4; KPL-4 breast tumour cell line, 2 hours treatment; read-out: P4EBP1-T70 median IC50
Method: The molecular mechanism of action was investigated in a set of experiments to assess the inhibition of the PI3K-AKT-mTOR pathway in responsive cell lines such as KPL-4 breast tumour cell line (PIK3CA^H1047R, HER2^O/E and hormone independent). The phospho-substrates of PI3K-AKT-mTOR axis were used as the readouts to reflect pathway inhibition. Cells were seeded at 60-80% confluency per well in 96-well cell culture plates. After overnight incubation at 37° C. 5% CO2, cells were treated with compounds and vehicle at 37° C. for 2 hours. Thereafter, cells were lysed in 150 μl lysis buffer and the levels of phospho-AKT at T308 and S473 and p-4E-BP1 at T70 sites were determined with the corresponding AlphaScreen® SureFire® assay kits (Perkin Elmer: 4E-BP1 Assay Kit Cat # TRG4E2S10K; Akt 1/2/3 p-Ser 473 #TGRA4S500 and Akt 1/2/3 p-Thr 308 #TGRA3S500 as well as IgG detection Kit #6760617M) as described in the manuals. All measurements where at least done in duplicates and confirmed by independent repetition. Alternatively pAKT-S473 was measured using the “Akt Duplex” of the MULTI-SPOT® Assay System (Fa. Meso Scale Discovery, Cat# N41100B-1) following manufacturers instructions. Each assay used 20 μg of protein extract and measured total AKT and p-AKT content simultaneously in one well. All measurements where at least done in duplicates and confirmed by independent repetition. Values for P-AKT are expressed as percentage of P-AKT level compared to total-AKT content of the extracts.

His-tagged human recombinant kinase full-length Akt2, sequence (P31751 whole entry): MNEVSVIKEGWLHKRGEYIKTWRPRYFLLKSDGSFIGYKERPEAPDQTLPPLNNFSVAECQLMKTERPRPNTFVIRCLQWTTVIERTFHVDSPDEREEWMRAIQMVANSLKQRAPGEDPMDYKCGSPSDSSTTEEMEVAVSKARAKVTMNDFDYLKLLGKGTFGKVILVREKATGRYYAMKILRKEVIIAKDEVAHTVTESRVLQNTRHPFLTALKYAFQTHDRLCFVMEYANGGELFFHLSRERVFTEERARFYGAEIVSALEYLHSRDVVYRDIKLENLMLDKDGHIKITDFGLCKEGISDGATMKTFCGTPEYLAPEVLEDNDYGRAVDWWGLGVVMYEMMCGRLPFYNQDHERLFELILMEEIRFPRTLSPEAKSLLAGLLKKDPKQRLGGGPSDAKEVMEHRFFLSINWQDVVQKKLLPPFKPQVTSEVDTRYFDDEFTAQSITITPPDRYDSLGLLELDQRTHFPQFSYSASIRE

Row | SMILES | IC50 [1] [nM] | IC50 (p-4E-BP1 at T70) [nM]
1 | Cc1cn2c(-c3ccccc3)c(-c3ccc(C4(N)CCC4)cc3)nc2c(C)n1 [Example 2, 1-[4-(6,8-Dimethyl-3-phenylimidazo[1,2-a]pyrazin-2-yl)phenyl]-cyclobutanamine] | 220 | 1100
2 | COc1nc(Br)cn2c(-c3ccccc3)c(-c3ccc(C4(N)CCC4)cc3)nc12 [Example 3, 1-[4-(6-Bromo-8-methoxy-3-phenylimidazo[1,2-a]pyrazin-2-yl)phenyl]cyclobutanamine] | 33 | 1400
3 | CCc1cn2c(-c3ccccc3)c(-c3ccc(C4(N)CCC4)cc3)nc2c(OC)n1 [Example 4, 1-[4-(6-Ethyl-8-methoxy-3-phenylimidazo[1,2-a]pyrazin-2-yl)phenyl]cyclobutanamine] | 34 | 380
4 | NC(=O)c1cn2c(-c3ccccc3)c(-c3ccc(C4(N)CCC4)cc3)nc2cn1 [Example 6, 2-[4-(1-Aminocyclobutyl)phenyl]-3-phenylimidazo[1,2-a]pyrazine-6-carboxamide] | 97 | 18
5 | COC(=O)c1cn2c(-c3ccccc3)c(-c3ccc(C4(N)CCC4)cc3)nc2c(OC)n1 [Example 7, Methyl 2-[4-(1-aminocyclobutyl)phenyl]-8-methoxy-3-phenylimidazo[1,2-a]pyrazine-6-carboxylate] | 86 | 43
6 | COc1nc(C(N)=O)cn2c(-c3ccccc3)c(-c3ccc(C4(N)CCC4)cc3)nc12 [Example 8, 2-[4-(1-Aminocyclobutyl)phenyl]-8-methoxy-3-phenylimidazo[1,2-a]pyrazine-6-carboxamide] | 14 | 18
